# In patent US20110201569A1, “Methods For Treating Myocardial Disorders” (priority 2009, published 2011):
# Entries after “also recorded” stand apart in the source; their conditions may differ.
# What was measured:
# Type in all cases: in vivo, mouse
# [1] = tested on: matrix metalloproteinase-2 (MMP-2); experiment: qRT-PCR of MMP-2 mRNA in left ventricle after TAC/sham
# Description: (§1) 11 to 13 week old male C57BL/6 mice were purchased from Charles River (Germany). Mice were housed in individually ventilated pathogen-free cages with free access to water and standard rodent chow. The animals were handled according to the principles of laboratory animal care (NIH publication No. 85-23, revised 1996), and animal procedures were approved by the local committee for animal care.
# The first injection was performed 5 min prior to TAC or sham-operation procedure (described below) and repeated 4, 8, 12, 24, 36, 48 and 60 hrs after surgery. […]
# (§2) Quantitative real-time PCR analysis was completed. […] RNA was dissolved in 100 μl of RNase-free water, and concentration was determined photometrically (absorbance at 260 nm) before storage at −80° C. […]
# (§3) Real-time PCR was performed according to the manufacturer's protocol. […] Each sample was measured in triplicate wells and underwent 40 cycles of amplification on an ABI PRISM® Sequence Detection System (Applied Biosystems). CT values were determined with SDS Software 2.2 (Applied Biosystems) and relative quotients (RQ) were calculated following the ΔΔCT method (RQ target gene/GAPDH).
# Statistics were calculated using Prism 4.05 (GraphPad Software Inc., CA, USA). All values are expressed as mean (M)±SEM. […]
# [2] = tested on: IL-10; experiment: qRT-PCR of IL-10 mRNA in left ventricle after TAC/sham; settings: for IL-10 mRNA level: three days after surgery, qRT-PCR, M ± SEM
# Description: as §1
# (§4) The first injection was performed 5 min prior to TAC or sham-operation procedure (described below) and repeated 4, 8, 12, 24, 36, 48 and 60 hrs after surgery. Animals were randomly assigned into two groups, receiving either a tetrasodium salt of the compound of formula 1 (hereinafter “Eritoran tetrasodium”) or placebo. The catheter was flushed with 50 μl 0.9% NaCl before and 100 μl after each injection of 50 μl Eritoran tetrasodium (2.5 mg/ml vehicle; 5 mg/kg bodyweight/application; dosage adopted from Shimamoto et al., Circulation 2006, 114: 1270-1274) or placebo solution.
# Treatment groups were separated into two subgroups, undergoing transverse aortic constriction (TAC) or sham operation. Surgery for TAC was achieved as published previously (see, e.g., Baumgarten et al., Circulation 2002, 105: 2192-2197 and Baumgarten et al., Basic Res Cardiol 2006, 101: 427-435). Mice were intubated in a supine position and mechanical ventilation was initiated (MiniVent 845, Hugo Sachs Elektronik, Germany). A left parasternal incision was performed. A suture was passed underneath the aorta and tied down on a 27 Gauge needle, which was immediately removed and allowed to achieve a standardised and previously validated decreased diameter of the aorta. For sham operation the suture was passed underneath the aorta without ligation. […]
# as §2, §3
# Statistics were calculated using Prism 4.05 (GraphPad Software Inc., CA, USA). All values are expressed as mean (M)±SEM. One-way ANOVA with Newman-Keuls post-hoc testing was performed for statistical analysis with the exception of TIMP and cytokine expression which were analysed with Kruskal-Wallis and Dunn's multiple comparison post-hoc testing Impact of TAC-Eritoran on IL-10 expression was analysed with Two-way ANOVA. […]
# [3] = tested on: C57BL/6 mice; experiment: Cardiac biometric parameters (left ventricular weight) three days after transverse aortic constriction (TAC) or sham operation
# Text: as §1
# To allow for repetitive intravenous injections, a venous port was implanted. Mice were anesthetized with isoflurane 2.0 vol % (Forene®, Abbott GmbH, Germany). Body temperature was maintained at 37° C. The jugular vein was exposed and a catheter (outer diameter 0.64 mm, Dow Corning Europe, Wiesbaden, Germany) inserted into the vessel via a small incision. The catheter was secured with a silk thread and tissue adhesive (Histoacryl, Braun, Germany). Finally, the catheter was tunneled subcutaneously and connected to an extracutaneous port through an incision between scapulae.
# as §4
# Treatment groups were separated into two subgroups, undergoing transverse aortic constriction (TAC) or sham operation. Surgery for TAC was achieved as published previously (see, e.g., Baumgarten et al., Circulation 2002, 105: 2192-2197 and Baumgarten et al., Basic Res Cardiol 2006, 101: 427-435). Mice were intubated in a supine position and mechanical ventilation was initiated (MiniVent 845, Hugo Sachs Elektronik, Germany). A left parasternal incision was performed. A suture was passed underneath the aorta and tied down on a 27 Gauge needle, which was immediately removed and allowed to achieve a standardised and previously validated decreased diameter of the aorta. For sham operation the suture was passed underneath the aorta without ligation. For analgesia, mice received a single intraperitoneal injection of 0.065 mg/kg BW buprenorphine.
# Three days after TAC or sham operation, the impact on cardiac biometric parameters was investigated. Body weight was registered. Heart and lung were excised, prepared and immediately measured. Total heart weight, left ventricular weight as well as lung weight and tibia length were recorded. Ventricles were snap frozen in liquid nitrogen and kept at −80° C.
# Statistics were calculated using Prism 4.05 (GraphPad Software Inc., CA, USA). All values are expressed as mean (M)±SEM. One-way ANOVA with Newman-Keuls post-hoc testing was performed for statistical analysis with the exception of TIMP and cytokine expression which were analysed with Kruskal-Wallis and Dunn's multiple comparison post-hoc testing Impact of TAC-Eritoran on IL-10 expression was analysed with Two-way ANOVA. Differences between experimental groups were considered to be significant with p<0.05.
# Example 2 was completed in a manner similar to Example 1, with minor changes as described below.
# With the consent of proper authority (LANUV), 12 week old male C57BL/6-mice were anesthetized with Isofluran (2.0 Vol. %) and a catheter was implanted into the right jugular vein. Afterwards, either transverse aortic constriction (TAC) or a sham operation was performed. In TAC animals, the aortic diameter was reduced by 70% with a 6-0 silk filament. Mice received either the compound of formula (I) or placebo i.v. 5 minutes prior to TAC/sham-operation and 6 h, 12 h, 24 h, 36 h, 48 h and 60 h after surgery. […]
# [4] = Example 1, TAC vs sham-operated, 5 mg/kg i.v. per application, three days after surgery
# [5] = Example 2, TAC treated vs TAC-placebo
SMILES,"MMP-2 mRNA level ([1]; Example 1, TAC vs sham within treated groups, three days after surgery)","IL-10 mRNA level ([2]; Example 1, TAC) [b]","elevation of IL-10 mRNA ([2]; Example 1, in sham and TAC groups, p<0.05, Two-way Anova)","IL-10 mRNA level ([2]; Example 1, sham operation) [b]","left ventricular weight/body weight (LVW/BW) [3, 4]","left ventricular weight/tibia length (LVW/TL) [3, 4]","left ventricular weight (LVW) ([3]; Example 1, TAC, 5 mg/kg i.v. per application, three days after surgery) [mg]","cardiac hypertrophy after TAC ([3]; Example 1, TAC, 5 mg/kg i.v. per application, three days after surgery, 5 mg/kg)","MMP-2 mRNA expression [1, 5]","IL-10 mRNA expression [2, 5]","left ventricle weight (LVW) ([3]; Example 2, TAC, i.v. 5 min prior to and 6-60 h after surgery, three days after surgery) [mg]","development of cardiac hypertrophy ([3]; Example 2, murine model of transverse aortic constriction (TAC))"
CCCCCC/C=C\CCCCCCCCCC(=O)N[C@H]1[C@H](OC[C@H]2O[C@H](OP(=O)([O-])[O-])[C@H](NC(=O)CC(=O)CCCCCCCCCCC)[C@@H](OCCCCCCCCCC)[C@@H]2O)O[C@H](COC)[C@@H](OP(=O)([O-])[O-])[C@@H]1OCC[C@@H](CCCCCCC)OC.[Na+].[Na+].[Na+].[Na+] [Eritoran tetrasodium],remained unchanged by aortic banding,4.71 ± 1.22,three to four fold elevation,3.81 ± 1.69,did not differ from sham-operated mice,did not differ from sham-operated mice,81.32 ± 4.21,decreases cardiac hypertrophy after TAC; also recorded: diminished cardiac hypertrophy induced by pressure overload,–,–,–,–
"CCCCCC/C=C\CCCCCCCCCC(=O)N[C@H]1[C@H](OC[C@H]2O[C@H](OP(=O)(O)O)[C@H](NC(=O)CC(=O)CCCCCCCCCCC)[C@@H](OCCCCCCCCCC)[C@@H]2O)O[C@H](COC)[C@@H](OP(=O)(O)O)[C@@H]1OCC[C@@H](CCCCCCC)OC [compound of formula (I), α-D-Glucopyranose, 3-O-decyl-2-deoxy-6-O-[2-deoxy-3-O-[(3R)-3-methoxydecyl)-6-O-methyl-2-[[(−11Z)-1-oxo-11-octadecenyl)amino]-4-O-phosphono-β-D-glucopyranosyl]-2-[(1,3-dioxotetradecyl)amino]-1-(dihydrogen phosphate)]",–,–,–,–,–,–,–,–,higher in the TAC-placebo animals compared to the TAC groups treated,increased,81.32 ± 4.2,prevents the development of cardiac hypertrophy
